According to patent US10195245B2, “Tetrapeptides derived from human C-X-C chemokines useful for treatment of various skin conditions” (Helix Biomedix, Inc., priority 2013, dated 2019):
Entries after “also recorded” stand apart in the source; their conditions may differ. Marks after values point to notes of the source that are not given here. Where a SMILES comes first, the peptide text is derived from it.

Columns and labels:
Type in all cases: cell-based
[1] = MTT cytotoxicity test on keratinocytes; conditions: human, normal human epidermal keratinocytes, 50 to 500 μg/ml tested
Experimental: C-X-C chemokines are well known for their chemotactic activity toward many cell types. […] The experiment was performed in the serum-free keratinocyte growth medium in the absence of supplement in order to restrain cells proliferation. The wounded area was examined by phase-contrast microscopy at the indicated times. […] At 20 μg/ml, the percentage of wound closure induced by SEQ IDs 1, 2, 3, 4, 5, 6 and 7 ranges from 165% to 240% compared to that of PBS treated which was taken as 100% (Table 1). […] To confirm that the peptides are not toxic to the keratinocytes at the concentrations tested for scratch wound closure all peptides were subjected to the MTT cytotoxicity test. None of the peptides were cytotoxic to normal skin keratinocyte in vitro after 24 hrs incubation at concentrations up to 500 ug/ml.
To make sure the peptides are not cytotoxic to the cells, normal human epidermal keratinocytes were seeded to a 96-well plate. The plate was incubated at 37° C. in the presence of 5% CO2 to allow the cells to grow to >95% confluent. Peptides are diluted into stock solutions at concentrations of 50, 100, 200, and 500 μg/ml. The cell culture media are replaced with fresh media containing peptides at various concentrations then incubated at 37° C. and 5% CO2 for 24 hr. At the end of treatment the cell viability was measured using MTT assay kit purchased from ATCC (Manassas Va.).

[2] = test system: S. aureus LTA induced IL-6 expression on human skin keratinocytes; assay: Blocking LTA induced IL-6 expression (ELISA); conditions: LTA 10 ug/ml pre-incubated with peptide 50 μg/ml 30 min, 24 hrs
Excerpt: The Gram-positive cell wall component peptidoglycan (PGN) is well known to stimulate pro-inflammatory cytokine expression. Lipoteichoic acid (LTA) is the key molecule in PGN that causes a concentration- and time-dependent increase in pro-inflammatory signals including nitric oxide synthase (iNOS), cyclooxygenase-2 (COX-2), IL-1 beta, TNF-alpha and IL-6 up-regulation (Lin et al., 2010). We therefore pretreated LTA with the inventive peptides and then assess the IL-6 stimulatory activity upon contact with human skin keratinocytes. […] It is very likely that the positively charged residues of the tetrapeptides bind to the negatively charged LTA thus blocking the interaction of LTA with its receptors. This is significant as bacterial cell wall components have been implicated in inflammatory skin conditions such as acne, rosacea, atopic dermatitis etc.
S. aureus LTA induced IL-6 stimulation on human epidermal keratinocytes. Human keratinocytes were grown to >80% confluence in serum free keratinocyte cultural media. S. aureus LTA 10 ug/ml was pre-incubated with each peptide (50 μg/ml) at room temperature for 30 min then the mixture was transferred to keratinocyte culture. The treatment was allowed for 24 hrs. The supernatant was removed. […]

[3] = test system: SOR-300-FT human psoriasis tissue construct; assay: qPCR gene expression on SOR-300-FT psoriasis tissue
Excerpt: SOR-300-FT, developed by MatTek Corporation (Ashland Mass.), is a highly differentiated in vitro psoriasis tissue comprised of normal, human-derived keratinocytes and psoriatic fibroblasts Morphologically, the tissue is of uniform thickness and it expresses increased levels of hyperproliferated cells as well as pro-inflammatory markers such as psoriasin, elafin, human beta-defensin-2, and LL-37 etc (Ayehunie et al., 2012). The pro-inflammatory condition of the tissue prompts us to test the inventive peptides to see if they modulate the inflammatory response. Due to the high cost of the tissue model, a representative peptide SEQ ID NO 1, HB2233, was selected as a proof of concept study using SOR-300-FT tissue model. The SOR-300-FT tissues were treated with HB2233 in duplicate at 200 μg/ml. Total 12 gene markers associated with psoriasis condition are studied. […] Both HB2233 and calcipotriol down-regulate Ki67 expression which is responsible for the hyperproliferation and early maturation of keratinocytes in psoriasis skin.
SOR-300-FT™ tissues were transferred to 6-well plates containing 0.9 ml of pre-warmed assay medium and equilibrated to standard culture conditions (37° C., 5% CO2) for 1 hour. After the 1 hr equilibration, the tissues were re-fed with fresh medium as follow: 1) for the 24 hr time point, tissues were feed with 0.9 ml of medium and 2) for time points >24 hr, tissues were feed with 5 ml of culture medium by placing the cell culture inserts on top of the washers (Part # EPI-WSHR, MatTek Corporation). Next, 50 μl of the test articles were applied topically to the psoriatic tissues (n=3) and the test article was added to the culture medium at the 3 concentrations chosen by the Sponsor. At times 24, and 48 hours: a) the tissues were rinsed topically 3× with 300-400 μL of PBS, b) the inserts containing the tissues were held tightly with sterile forceps and the test article was rinsed gently by immersing the insert into PBS and decant medium from insert, and c) fresh test article was re-applied to the tissue immediately after rinsing and decanting (50 μL topically). Analysis was performed at t=72 hr (3× repeat applications). cDNA was generated using the Qiagen RT2 First Strand Kit (cat#330401). Relative gene expression was measured using Qiagen RT2 SYBR Green qPCR Mastermix (cat#330502) and Qiagen RT2 primers. Analysis was carried out using Bio-Rad CFX software.

[4] = test system: human umbilical vein endothelial cells (HUVEC); assay: In vitro angiogenesis assay (capillary tube formation); set-up: key to Promote tube formation 3 hrs / Promote tube formation 5 hrs: 0: Individual cells, well separated; 1: Cells begin to migrate and align themselves; 2: Capillary tubes visible, no sprouting; 3: Sprouting of new capillary tubes visible; 4: Closed polygons begin to form; 5: Complex mesh like structures develop
Excerpt: Angiogenesis, the formation of new capillaries from the pre-existing vascular network, is an essential step of wound repair. The peptides generated in the current invention, SEQ ID NOs 1-7, also stimulate capillary tube formation. The in vitro angiogenesis assay uses human umbilical vein endothelial cells (HUVEC) to measurer a series of events that lead to forming new capillary tubes. Upon induction, the HUVEC undergoes migration to align then sprouting from individual cells. The sprouting event leads to formation of new capillary tubes which further develop to form closed polygons. Eventually a complex mesh like structure is developed. Human cathelicidin peptide, LL-37, is a well-studied example to promote angiogenesis. It is used as positive control in the assessment. […] Compared to LL-37, SEQ ID NOs.
The angiogenesis assay was performed using the In Vitra Angiogenesis Assay Kit purchased from Millipore. Briefly, matrix layer was prepared with ECMATRIX™ solution according to the manufacturer's instructions. The human umbilical vein endothelial cells (HUVEC) (ATCC, Manassas, Va.) were cultured in complete F12K medium (ATCC, Manassas, Va.) supplemented with 0.1 mg/ml of heparin (Sigma-Aldrich), 30 ug/ml of ECGS (Sigma-Aldrich) and 10% fetal bovine serum (ATCC, Manassas, Va.). The cells were harvested and resuspended in complete media. The peptide was mixed with cells at approximately 5×10^3-1×10^4 cells per well in a 96-well plate prior to seeding cells onto the surface of the polymerized ECMATRIX™ solution. The plate was incubated at […], 5% CO2 for up to 9-12 hr. Tube formation was inspected under an inverted light microscope periodically and pictures were taken at 3 and 5 hr intervals and assigned a numerical value to each pattern as shown below.

[5] = 72 hr, HB2233 at 200 μg/ml, listed as calcipotriol

CC[C@H](C)[C@H](N)C(=O)N[C@@H](CCC(N)=O)C(=O)N[C@@H](CCCCN)C(=O)N[C@H](C(=O)O)[C@@H](C)CC [HB2271, IQKI] (H-IQKI-OH; N-terminus and C-terminus assumed)
CC50 at 24 h [1]: > 500 µg/mL

CC[C@H](C)[C@H](N)C(=O)N[C@@H](CCCCN)C(=O)N[C@@H](CCCCN)C(=O)N[C@@H](Cc1c[nH]c2ccccc12)C(=O)O [HB2272, IKKW] (H-IKKW-OH; N-terminus and C-terminus assumed)
CC50 at 24 h [1]: > 500 µg/mL

Lipoteichoic acid [LTA alone]
IL-6 expression (arbitrary) [2]: 1.248 arbitrary

CC(C)[C@H](N)C(=O)N[C@@H](CCC(=O)O)C(=O)N[C@@H](CCCCN)C(=O)N[C@@H](Cc1ccccc1)C(=O)O [HB2267, VEKF] (H-VEKF-OH; N-terminus and C-terminus assumed)
CC50 at 24 h [1]: > 500 µg/mL

C=C1/C(=C\C=C2/CCC[C@]3(C)[C@@H]([C@H](C)/C=C/[C@@H](O)C4CC4)CC[C@@H]23)C[C@@H](O)C[C@@H]1O [Calcipotriol, calcipotriol]
downregulation of HBD-2 ([3]; 72 hr treatment, qPCR): 9.0 fold
downregulation of psoriasin ([3]; 72 hr treatment, qPCR): 2.3 fold
Fold change in gene expression: Calgranulin C ([3]; 72 hr, HB2233 at 200 μg/ml): −1.3 fold
Fold change in gene expression: ENA-78 ([3]; 72 hr, HB2233 at 200 μg/ml): 1.6 fold
Fold change in gene expression: Elafin ([3]; 72 hr, HB2233 at 200 μg/ml): −1.4 fold
Fold change in gene expression: GRO alpha ([3]; 72 hr, HB2233 at 200 μg/ml): 1.3 fold
Fold change in gene expression: HBD-2 ([3]; 72 hr, HB2233 at 200 μg/ml): −9.0 fold
Fold change in gene expression: IL-8 ([3]; 72 hr, HB2233 at 200 μg/ml): 1.3 fold
Fold change in gene expression: Ki-67 ([3]; 72 hr, HB2233 at 200 μg/ml): −1.1 fold
Fold change in gene expression: LL-37 ([3]; 72 hr, HB2233 at 200 μg/ml): 5.1 fold
Fold change in gene expression: P63 ([3]; 72 hr, HB2233 at 200 μg/ml): −1.4 fold
Fold change in gene expression: Psoriasin ([3]; 72 hr, HB2233 at 200 μg/ml): −2.3 fold
Fold change in gene expression: SLPI ([3]; 72 hr, HB2233 at 200 μg/ml): 2.1 fold
Fold change in gene expression: Transglutaminase ([3]; 72 hr, HB2233 at 200 μg/ml): 1.5 fold
Fold change in gene expression: ENA-78 [3, 5]: does not seem to affect
Fold change in gene expression: GRO alpha [3, 5]: does not seem to affect
Fold change in gene expression: Ki-67 [3, 5]: down-regulate

CC[C@H](C)[C@H](N)C(=O)N[C@@H](CCC(=O)O)C(=O)N[C@@H](CCCCN)C(=O)N[C@H](C(=O)O)[C@@H](C)CC [HB2270, IEKI] (H-IEKI-OH; N-terminus and C-terminus assumed)
CC50 at 24 h [1]: > 500 µg/mL

CC[C@H](C)[C@H](N)C(=O)N[C@@H](CCCCN)C(=O)N[C@@H](CCCCN)C(=O)N[C@H](C(=O)O)C(C)C [HB2273, IKKV] (H-IKKV-OH; N-terminus and C-terminus assumed)
CC50 at 24 h [1]: > 500 µg/mL

LL-37 (LLGDFFRKSKEKIGKEFKRIVQRIKDFLRNLVPRTES; Antibacterial peptide LL-37; UniProt P49913 134-170, looked up) [Human cathelicidin peptide, used as positive control to promote angiogenesis]
capillary tube formation on HUVEC (in words) ([4]; 3 and 5 hr treatment): sprouting of new capillary tubes becomes visible just after 3 hr; also recorded: After 5 hr treatment with LL-37, the closed polygons are formed; also recorded: also stimulate angiogenesis
Promote tube formation 3 hrs ([4]; 3 hrs, values ≥3 considered significant induction of angiogenesis): 3*
Promote tube formation 5 hrs ([4]; 5 hrs, values ≥3 considered significant induction of angiogenesis): 4*

CC[C@H](C)[C@H](N)C(=O)N[C@@H](CCC(=O)O)C(=O)N[C@@H](CCCCN)C(=O)N[C@@H](CCSC)C(=O)O [HB2233, IEKM] (H-IEKM-OH)
CC50 at 24 h [1]: > 500 µg/mL

CC[C@H](C)[C@H](N)C(=O)N[C@@H](CCCCN)C(=O)N[C@@H](CCCCN)C(=O)N[C@@H](CC(C)C)C(=O)O [HB2274, IKKL] (H-IKKL-OH; N-terminus and C-terminus assumed)
CC50 at 24 h [1]: > 500 µg/mL
